Measured values taken from patent US20090203797A1, “Antimycotic Patch” (priority 2007, published 2009).
Counter-ions that a name gives are not always drawn.

Key:
[1] = from the interview form provided with 125 mg Lamisil Tablets; cited from earlier work
[2] = octanol/water partition coefficient logKo/w; assay type: physicochemical; settings: 32° C., HPLC of each layer
Procedure: In the present invention, logKo/w is determined in the following manner. First, a drug is dissolved in a suitable amount of octanol (or water) at 32° C. followed by the further addition of an equal amount of water (or octanol) and mixing well. After the mixture divides into two layers, the concentration of drug in each layer is measured by HPLC and logKo/w is determined using the equation below. LogKo/w=log(drug concentration in octanol phase/drug concentration in aqueous phase)

Row | Structure (SMILES) | logKo/w value [1] | logP [2]
1 | CN(C/C=C/C#CC(C)(C)C)Cc1cccc2ccccc12 [terbinafine hydrochloride] | 0.87 | –
2 | CN(C/C=C/C#CC(C)(C)C)Cc1cccc2ccccc12 [terbinafine-base] | – | 5.8
